Laboratory results reported in a melting point compilation (Tetko et al.; mined from patent text by program, amines drawn as free bases though some values may be those of a salt).

Row | melting point [°C] | Structure (SMILES)
1 | 187 to 189 | Cc1ccn2nc(S(=O)(=O)N(C(=O)c3ccccc3)c3c(Cl)cccc3Cl)nc2n1
2 | 183 to 184 | Cc1c2c(c3ccccc3c1NC(=O)CC(C)(C)C)OCC2c1ccc(C(C)C)cc1 (centres undefined)
3 | 160 to 161 | COc1cc(NCCOc2ccccc2C)ccc1C(=O)N1CCCC(CC(=O)N2CCN(C)CC2)c2cc(Cl)ccc21 (centres undefined)
4 | 167 to 168 | COc1cc(COc2nn(Cc3ccccc3)cc2C(=O)O)ccc1OCc1nc(-c2ccco2)oc1C
5 | 118 to 119 | CN(CCO)Cc1cc(C(=O)c2ccccc2)cc(C(C)(C)C)c1O
6 | 91 to 93 | COc1cc(N)c(Cl)cc1C(=O)NCC1(OC)CCN(CCCCCC(=O)c2ccccc2)CC1
7 | 258 | O=C(O)c1c(-c2ccccc2)c(=O)[nH]c2cc(Cl)ccc12
8 | 156 | CCOC(=O)N1CCC(=C2c3cc(C)ccc3CCn3ccnc32)CC1
9 | 141 to 143 | O=C(SCCC(=O)N1C(c2cccs2)SC[C@H]1C(=O)O)c1ccccc1 (some centres undefined)
10 | 95 to 97 | CCOC(=O)C1=C(C)NC(=S)N(C(=O)OCC)C1c1cccc(Cl)c1 (centres undefined)
11 | 168 to 171 | O=c1[nH]c(NCCCNc2ccccn2)ncc1Cc1ccc(Cl)cc1
12 | 60 to 75 | CC(=O)Oc1c(C)c(C)c(O)c(C(C)=NOCCOc2ccc(CC3SC(=O)NC3=O)cc2)c1C (centres undefined)
13 | 78 to 80 | OCc1ccc(OCc2cccc(Cl)c2)cn1
14 | 178 to 180 | COc1ccc2c(c1)CN(Cc1c[nH]c3ccccc13)C2
15 | 82 to 84 | CCCCCCCCCCCCCCCCCCOc1cc(OCCCCCCc2cccc(O)c2O)cc(C(=O)OC)c1
16 | 155 to 160 | Cc1c(Cc2ccccc2)c(=O)oc2cc(OCC(=N)NO)cc(OCC(=N)NO)c12
17 | 75 to 77 | CCOC(=O)COc1c(C)cc(C)c2c1CCC2=O
18 | 59 to 62 | CC(C)(C)c1ccc(/C=C/C(=O)OCc2ccccc2)cc1

More lines, now with the values behind:

Row | Structure (SMILES) | melting point [°C]
19 | ClC1=NCc2c(-c3noc(C4CC4)n3)ncn2-c2ccc(Cl)cc21 | 200
20 | O=C(C(=O)c1ccc(C#Cc2ccccc2)cc1)c1ccc(C#Cc2ccccc2)cc1 | 168 to 170
21 | COC(=O)C1CN2c3c(cc(F)c(OS(C)(=O)=O)c3CCN2C)C1=O (centres undefined) | 247 to 250
22 | O=[N+]([O-])OCC#CCO | 107 to 110
23 | O=C(c1ccccc1)c1cnn2c1NCCC2 | 173 to 174
24 | O=C(O)/C=C/c1ccc(C(=O)NC2CCCCC2)cc1 | 214
25 | Nc1c(F)c(N2CC(O)C2)c(F)c2c1c(=O)c(C(=O)O)cn2C1CC1 | 271 to 275
26 | O=C(O)c1nc2cc(N3CCN(c4ccc(F)cc4)CC3)c([N+](=O)[O-])cc2[nH]c1=O | 236 to 238
27 | CC(=O)N1CCC(CCC(=O)c2ccc(F)cc2)CC1 | 95 to 96
28 | CS(=O)(=O)N1CCC(NC(=O)Nc2cccc(F)c2)CC1 | 212 to 214
29 | CC(C)CCNC(=O)c1c(N)cc(Cl)cc1Cl | 148 to 150
30 | C[C@@H]1C(=O)C[C@H]2C[C@@H]1OO[C@@]2(C)/C=C\c1cccc(C(F)(F)F)c1 | 101
31 | Cc1cccc(-c2nccc3nc(N)nn23)c1 | 125 to 126
32 | O=C(O)c1cn(-c2cc(O)c(F)cc2[N+](=O)[O-])c2c(Cl)c(F)c(F)cc2c1=O | 248 to 255
33 | CC(C)(C)OC(=O)N[C@@H](COS(C)(=O)=O)Cc1ccccc1 | 119 to 120
34 | CNc1nn(C)c2nc3n(c(=O)c12)CCS3 | 255 to 256
35 | C=CCN1C2CCC1C1CCC2N1C(c1ccc(C(=O)NC2CCCCC2)cc1)c1cccc(OC)c1 (centres undefined) | 58 to 60
36 | Cn1cc(-c2ccccc2)c(=O)c(S(=O)(=O)c2ccccc2)c1 | 218 to 220
37 | O=[N+]([O-])c1ccc2c(c1)NP(=O)(N(CCCl)CCCl)NC2 (centres undefined) | 168 to 170
38 | COc1ccc(C2(C#N)CCC(=O)C(C(N)=O)C2)cc1OCC1CC1 (centres undefined) | 154 to 155
39 | c1ccc(-c2nc3ccccc3n3cncc23)cc1 | 165 to 167
